Assay results taken from patent US4315928A, “N-Aminosulfenyl carbamate compounds, compositions and use” (priority 1975, dated 1982).

Legend:
[1] = tested on: corn; test: Phytotoxicity Test, corn; type: in vivo; parameters: key: A rating of 1 indicates no perceptible injury; ratings of 2, 3 and 4 indicate intermediate degrees of injury; ratings of 2, 3 and 4 indicate intermediate degrees of injury; ratings of 2, 3 and 4 indicate intermediate degrees of injury; 5 indicates the plant was dead; conditions: ten days
Method: (§1) Suspensions of the test compounds were prepared by dissolving one gram of compound in 50 milliliters of acetone in which had been dissolved 0.1 gram (10 percent of the weight of compound) of an alkylphenoxy polyethoxyethanol surfactant, as an emulsifying or dispersing agent. The resulting solution was mixed into 150 milliliters of water to give roughly 200 milliliters of a suspension containing the compound in finely divided form. The thus-prepared stock suspension contained 0.5 percent by weight of compound. The test concentrations in parts per million by weight employed in the tests described hereinbelow were obtained by appropriate dilutions of the stock suspension with water. The test procedures were as follows:
(§2) Experiments were also conducted to determine the phytotoxicity of representative compositions with respect to healthy fresh plants. Solutions of the compounds were prepared as described above to provide a concentration of 2500 parts per million of the test compound. The test plants were sprayed in accordance with the procedure described above for the Mite Foliage Spray Test so as to deliver approximately 100 milliliters of test solution to the leaves of each plant tested. The sprayed plants and controls were set aside for approximately one hour to allow the solutions to dry and were then placed in the greenhouse. After ten days the plants were visually inspected to determine the extent of foliage injury. A rating of 1 indicates no perceptible injury; 5 indicates the plant was dead and ratings of 2, 3 and 4 indicate intermediate degrees of injury based upon the number and extent to which leaves were injured.

[2] = tested on: green beans; test: Phytotoxicity Test, green beans; type: in vivo; parameters: key: A rating of 1 indicates no perceptible injury; ratings of 2, 3 and 4 indicate intermediate degrees of injury; ratings of 2, 3 and 4 indicate intermediate degrees of injury; ratings of 2, 3 and 4 indicate intermediate degrees of injury; 5 indicates the plant was dead; conditions: ten days
Method: as §1, §2

[3] = tested on: rat; test: in vivo; conditions: oral, statement on Table I
Method: (§3) These compositions were also evaluated to determine their peroral toxicity to mammals by conventional methods. The animal selected for this experiment was the rat.

[4] = tested on: soybeans; test: Phytotoxicity Test, soybeans; type: in vivo; parameters: key: A rating of 1 indicates no perceptible injury; ratings of 2, 3 and 4 indicate intermediate degrees of injury; ratings of 2, 3 and 4 indicate intermediate degrees of injury; ratings of 2, 3 and 4 indicate intermediate degrees of injury; 5 indicates the plant was dead; conditions: ten days
Method: as §1, §2

[5] = tested on: tomato; test: Phytotoxicity Test, tomato; type: in vivo; parameters: key: A rating of 1 indicates no perceptible injury; ratings of 2, 3 and 4 indicate intermediate degrees of injury; ratings of 2, 3 and 4 indicate intermediate degrees of injury; ratings of 2, 3 and 4 indicate intermediate degrees of injury; 5 indicates the plant was dead; conditions: ten days
Method: as §1, §2

[6] = tested on: cotton; test: Phytotoxicity Test, cotton; type: in vivo; parameters: key: A rating of 1 indicates no perceptible injury; ratings of 2, 3 and 4 indicate intermediate degrees of injury; ratings of 2, 3 and 4 indicate intermediate degrees of injury; ratings of 2, 3 and 4 indicate intermediate degrees of injury; 5 indicates the plant was dead; conditions: ten days
Method: as §1, §2

[7] = tested on: two-spotted mite (Tetranychus urticae Koch); test: whole plant or invertebrate; conditions: foliar, 144 h, read-out: Insect Toxicity, % Kill at 250 ppm, TSM
[8] = tested on: Mexican bean beetle (Epilachna varivestis, Muls.); test: whole plant or invertebrate; conditions: 72 h, read-out: Insect Toxicity, % Kill at 250 ppm, MBB
[9] = in vivo; conditions: rat, in vivo, po
Method: as §3

[10] = tested on: bean aphid (Aphis fabae Scop.); test: whole plant or invertebrate; conditions: foliar, 24 h, read-out: Insect Toxicity, % Kill at 250 ppm, BA
[11] = tested on: southern armyworm (Prodenia eridania, (Cram.)); test: whole plant or invertebrate; conditions: Spodoptera eridania, 72 h, read-out: Insect Toxicity, % Kill at 250 ppm, SAW
[12] = tested on: house flies (Musca domestica, L.); test: whole plant or invertebrate; conditions: po, 24 h, read-out: Insect Toxicity, % Kill at 250 ppm, HF

Row | Compound | Crop Phytotoxicity, Injury Rating at 2500 ppm, CN [1] | Crop Phytotoxicity, Injury Rating at 2500 ppm, GB [2] | mammalian toxicity (in words) [3] | Crop Phytotoxicity, Injury Rating at 2500 ppm, SOYBN. [4] | Crop Phytotoxicity, Injury Rating at 2500 ppm, TOM [5] | Crop Phytotoxicity, Injury Rating at 2500 ppm, COT. [6] | mortality at 250 ppm [7] [%] | mortality at 250 ppm [8] [%] | LD50 [9] [mg/kg] | mortality at 250 ppm [10] [%] | mortality at 250 ppm [11] [%] | mortality at 250 ppm [12] [%]
1 | CSC(C)=NOC(=O)N(C)SN1CCOCC1 [Compound 3, S-Methyl N-[N'-Methyl-N'-(4-Morpholinosulfenyl)carbamoyloxy]-thioacetimidate] | 1 | 1 | extremely low mammalian toxicity | 1 | 1 | 1 |  |  |  |  |  | 
2 | CCSC(C)=NOC(=O)N(C)SN1CCOCC1 [Compound 4, S-Ethyl-N-[N'-Methyl-N'-(4-Morpholinosulfenyl)Carbamoyloxy]Thioacetimidate] | 1 | 1 | extremely low mammalian toxicity | 2 | 1 | 1 | 100 | 100 | 141 | 100 | 100 | 100
3 | CN(SN1CCOCC1)C(=O)ON=C1CSCCS1 [Compound 5, 2-N-[N'-Methyl-N'-(4-Morpholinosulfenyl)Carbamoyloxy]imino-1,4-Dithiane] | 1 | 1 |  | 1 | 1 | 1 | 100 | 100 | 19.8 | 100 | 100 | 100
4 | CSC(C)(C)C=NOC(=O)N(C)SN1CCOCC1 [Compound 6, 2-Methyl-2-(Methylthio)propionaldehyde O-[N-Methyl-N-(4-Morpholinosulfenyl)Carbamoyl]oxime] | 1 | 1 |  | 1 | 1 | 1 | 100 | 0 | 1.2 | 100 | 10 | 100
5 | CC(=NOC(=O)N(C)SN1CCOCC1)SC(C)C [Compound 7, S-Isopropyl N-[N'-Methyl-N'-(4-Morpholinosulfenyl)carbamoyloxy]thioacetimidate] | 1 | 2 |  | 1 | 1 | 1 | 100 | 100 | 28.1 | 100 | 100 | 100
6 | CC(=NOC(=O)N(C)SN1CCOCC1)SCCC#N [Compound 8, S-(2-Cyanoethyl)-N-[N'-Methyl-N'-(4-Morpholinosulfenyl)carbamoyloxy]thioacetimidate] | 1 | 1 |  | 1 | 1 | 1 | 100 | 100 | 22 | 100 | 100 | 100
7 | CC1OCSC1=NOC(=O)N(C)SN1CCOCC1 (centres unmarked) [Compound 9, 5-Methyl-4-N-[N'-Methyl-N'-(4-Morpholinosulfenyl)carbamoyloxy]imino-1,3-Oxathiolane] | 1 | 1 |  | 2 | 2 | 1 | 100 | 100 | 16 | 100 | 100 | 100
8 | CN(SN1CCOCC1)C(=O)ON=CC(C)(C)C#N [Compound 10, 2-Cyano-2-Methylpropionaldehyde O-[N-Methyl-N-(4-Morpholinosulfenyl)Carbamoyl]oxime] | 1 | 1 |  | 1 | 1 | 3 | 100 | 100 |  | 100 | 100 | 100
9 | CSC(C)=NOC(=O)N(SN1CCOCC1)C(C)C [Compound 14, S-Methyl-N-[N'-Isopropyl-N'-(4-Morpholinosulfenyl)Carbamoyloxy]Thioacetimidate] | 1 | 1 |  | 1 | 1 | 1 | 0 | 0 |  | 100 | 0 | 0
10 | CN(SN1CCOCC1)C(=O)ON=C1SCC(=O)NC1(C)C [Compound 16, 3,3-Dimethyl-2-N-[N'-Methyl-N'-(4-Morpholinosulfenyl)Carbamoyloxy]imino-5-Oxo-Perhydro-1,4-Thiazine] | 1 | 1 |  | 1 | 1 | 1 | 100 | 100 |  | 100 | 100 | 100
11 | CN(C)SN(C)C(=O)ON=C1CSCCS1 [Compound 23, 2-N-[N'-Methyl-N'-(Dimethylaminosulfenyl)carbamoyloxy]imino-1,4-Dithiane] | 1 | 1 |  | 1 | 1 | 2 | 100 | 100 | 15 | 100 | 100 | 100
12 | CC(=NOC(=O)N(C)SN(C)C)SC(C)C [Compound 24, S-Isopropyl-N-[N'-Methyl-N'-(Dimethylaminosulfenyl)carbamoloxy]thioacetimidate] | 1 | 2 |  | 3 | 2 | 2 | 100 | 100 | 28.3 | 100 | 100 | 100
